Results from patent publication US8815869B2, “Lactam acetamides as calcium channel blockers” (AbbVie Inc., priority 2010, dated 2014).

Columns and labels:
Human Cav3.2 = target: T1, Human Cav3.2 (Homo sapiens, UniProt O95180); assay: Electrophysiologic (whole-cell patch-clamp) assessment of calcium channel activity, HEK293 cells stably expressing hCav3.2; assay type: cell-based; details: −77 mV, GeoMean
T1 construct: expressed in transfected cells
Description: (ii) In Vitro Methods—Electrophysiologic Assessment of Calcium Channel Activity
Patch-clamp recordings were performed using HEK293 cells stably expressing hCav3.2. Cells were plated in T175 flasks and grown at 37° C. and under 5% CO2 to approximately 50% confluency. On the day of the experiment, cells were harvested with Detachin™ cell detachment solution (Genlantis, San Diego, Calif.) and maintained in serum-free culture medium supplemented with 25 mM HEPES up to several hours prior to experiment. Whole-cell patch-clamp recordings were obtained using extracellular saline consisting of (mM): 87.5 CsCl, 40 TEA-Cl, 5 CaCl2, 1 MgCl2, 10 HEPES, 10 glucose. The pH was adjusted to 7.2 with CsOH and the osmolarity was adjusted to approximately 310 mOsm with sucrose. Intracellular solution consisted of (mM): 112 CsCl, 27 CsF, 2 NaCl, 8.2 EGTA, 10 HEPES. Prior to an experiment 4 mM Mg2ATP was added and the pH was adjusted to 7.2 with CsOH with an osmolarity of approximately 290 mOsm. A two-pulse voltage protocol was utilized to assess compound inhibition. First, cells were held with an 8 second pre-pulse at −100 mV prior to a 160 millisecond test pulse to −30 mV. This was followed by an 8 second pre-pulse at approximately −75 mV prior to a […] test pulse to −30 mV. Increasing concentrations of antagonist were applied to individual cells in a multi-addition format with 5 minutes in each test concentration. For each cell, responses were normalized to dimethyl sulfoxide vehicle control to generate concentration-response curves.

Sprague Dawley rats = assay: Capsaicin induced secondary mechanical hyperalgesia model; assay type: in vivo; details: po, 1 h; 30 mg/kg p.o., 60 minutes before testing; relative to vehicle; secondary mechanical hyperalgesia 180 minutes after capsaicin; rat
Description: (iii) In Vivo Data—Capsaicin Induced Secondary Mechanical Hyperalgesia Model
Sprague Dawley rats were briefly restrained, and capsaicin was administered at 10 μg in 10 μL of vehicle by intraplantar injection into the center of the right hind paw. Secondary mechanical hyperalgesia (SMH) was measured at the heel away from the site of injection 180 minutes following capsaicin exposure. Compounds and gabapentin (positive control), were administered p.o. 60 minutes before testing (2 hours after capsaicin) or i.p. 30 minutes before testing (2.5 hours after capsaicin). SMH was measured using calibrated von Frey filaments (Stoelting, Woodale, Ill.). Following the 1 hour habituation in the testing room, rats were moved to individual plexiglass chambers that sit on top of a wire mesh to allow for access for stimulation of the plantar surface of the hind paws. Rats were allowed to acclimate to the new chambers for 15 minutes before the onset of testing. The paw withdrawal threshold was determined by increasing and decreasing stimulus intensity (force: g) and calculated using Dixon's up-down method (Chaplan, S R; et al. J. Neuroscience Methods 1994; 53: 55-63). The filaments (maximum force of 15.0 g) were held in place for 8 seconds or until there was a withdrawal response from the mechanical stimulation.

T1 sequence (O95180 whole entry): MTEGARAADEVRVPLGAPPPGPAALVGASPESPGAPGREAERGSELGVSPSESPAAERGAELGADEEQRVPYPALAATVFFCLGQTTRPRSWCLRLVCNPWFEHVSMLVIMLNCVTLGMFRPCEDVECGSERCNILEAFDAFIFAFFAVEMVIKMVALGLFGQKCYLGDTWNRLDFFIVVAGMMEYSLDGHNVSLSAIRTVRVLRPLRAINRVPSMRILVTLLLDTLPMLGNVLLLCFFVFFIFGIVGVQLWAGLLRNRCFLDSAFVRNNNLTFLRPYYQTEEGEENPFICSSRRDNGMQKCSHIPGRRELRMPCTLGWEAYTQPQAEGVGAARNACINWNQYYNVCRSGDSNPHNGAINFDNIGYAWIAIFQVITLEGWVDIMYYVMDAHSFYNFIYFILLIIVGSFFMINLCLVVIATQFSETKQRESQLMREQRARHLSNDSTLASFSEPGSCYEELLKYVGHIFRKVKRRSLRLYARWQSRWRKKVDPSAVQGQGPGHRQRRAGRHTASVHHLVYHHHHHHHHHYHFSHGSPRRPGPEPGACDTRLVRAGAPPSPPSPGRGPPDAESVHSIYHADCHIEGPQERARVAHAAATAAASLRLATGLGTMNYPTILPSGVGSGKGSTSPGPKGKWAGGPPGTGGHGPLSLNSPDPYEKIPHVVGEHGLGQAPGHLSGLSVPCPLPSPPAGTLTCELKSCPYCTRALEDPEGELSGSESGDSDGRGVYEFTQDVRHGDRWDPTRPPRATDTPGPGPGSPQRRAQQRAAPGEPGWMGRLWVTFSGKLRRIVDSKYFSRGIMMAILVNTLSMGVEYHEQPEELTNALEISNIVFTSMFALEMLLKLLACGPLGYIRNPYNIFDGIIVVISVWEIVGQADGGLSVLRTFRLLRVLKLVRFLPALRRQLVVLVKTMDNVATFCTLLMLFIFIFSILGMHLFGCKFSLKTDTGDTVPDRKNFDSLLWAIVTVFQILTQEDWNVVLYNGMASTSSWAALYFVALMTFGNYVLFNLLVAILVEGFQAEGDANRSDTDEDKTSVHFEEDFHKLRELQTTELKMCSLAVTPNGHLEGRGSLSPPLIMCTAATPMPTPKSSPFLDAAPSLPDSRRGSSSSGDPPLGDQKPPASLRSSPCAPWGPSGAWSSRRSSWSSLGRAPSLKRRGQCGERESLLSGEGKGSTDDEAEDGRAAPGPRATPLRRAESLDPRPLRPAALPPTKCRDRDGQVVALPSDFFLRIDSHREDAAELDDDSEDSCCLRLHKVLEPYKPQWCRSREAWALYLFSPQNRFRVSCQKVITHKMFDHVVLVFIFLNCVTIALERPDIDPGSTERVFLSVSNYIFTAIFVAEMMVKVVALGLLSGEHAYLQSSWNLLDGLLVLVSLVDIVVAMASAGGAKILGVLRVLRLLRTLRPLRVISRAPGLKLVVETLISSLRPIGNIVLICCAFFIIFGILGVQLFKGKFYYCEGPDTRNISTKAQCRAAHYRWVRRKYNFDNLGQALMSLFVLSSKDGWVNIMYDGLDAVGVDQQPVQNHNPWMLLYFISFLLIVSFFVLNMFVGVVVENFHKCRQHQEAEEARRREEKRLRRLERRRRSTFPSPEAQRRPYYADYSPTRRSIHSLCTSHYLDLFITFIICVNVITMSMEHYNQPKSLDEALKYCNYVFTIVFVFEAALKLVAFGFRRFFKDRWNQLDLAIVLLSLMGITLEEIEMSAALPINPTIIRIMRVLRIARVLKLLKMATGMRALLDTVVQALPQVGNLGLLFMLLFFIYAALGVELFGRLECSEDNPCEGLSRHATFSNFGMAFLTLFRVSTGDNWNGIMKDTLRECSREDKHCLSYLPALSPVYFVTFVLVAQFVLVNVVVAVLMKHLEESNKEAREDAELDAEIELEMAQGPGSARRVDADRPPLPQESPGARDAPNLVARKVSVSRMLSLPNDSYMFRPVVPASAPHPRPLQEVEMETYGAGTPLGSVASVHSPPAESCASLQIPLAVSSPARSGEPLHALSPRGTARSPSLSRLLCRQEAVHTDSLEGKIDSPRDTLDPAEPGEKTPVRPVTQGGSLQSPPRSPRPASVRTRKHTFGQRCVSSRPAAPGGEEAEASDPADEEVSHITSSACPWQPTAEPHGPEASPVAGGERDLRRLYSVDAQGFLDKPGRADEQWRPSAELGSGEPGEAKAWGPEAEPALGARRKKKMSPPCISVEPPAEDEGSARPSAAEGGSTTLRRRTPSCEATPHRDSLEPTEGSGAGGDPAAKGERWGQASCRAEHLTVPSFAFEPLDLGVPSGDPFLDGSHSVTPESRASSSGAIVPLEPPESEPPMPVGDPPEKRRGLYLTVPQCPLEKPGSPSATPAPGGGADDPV

Row | IC50 (Human Cav3.2) [µM] | Compound | inhibition in vivo at 30 mg/kg (Sprague Dawley rats) [%]
1 | 3.6 | O=C(CN1CCCC(c2ccccc2)(c2ccccc2)C1=O)N1C[C@@H]2CN[C@@H](C2)C1 (relative stereo) [Example 13, 1-{2-[(1S*,5S*)-3,6-Diazabicyclo[3.2.1]oct-3-yl]-2-oxoethyl}-3,3-diphenylpiperidin-2-one] | 60
2 | > 10 | O=C(CN1CCCC(c2ccccc2)(c2ccccc2)C1=O)NC1CCNCC1 [Example 1, 2-(2-Oxo-3,3-diphenylpiperidin-1-yl)-N-(piperidin-4-yl)acetamide] | 
3 | 2.77 | CC1(C)C(=O)NCCN1C(=O)CN1CCCC(c2ccccc2)(c2ccccc2)C1=O [Example 2, 3,3-Dimethyl-4-[(2-oxo-3,3-diphenylpiperidin-1-yl)acetyl]piperazin-2-one] | 
4 | 4.35 | O=C(CN1CCCC(c2ccccc2)(c2ccccc2)C1=O)N1C[C@@H]2CCCN[C@@H]2C1 [Example 3, 1-{2-[(4aS,7aS)-Octahydro-6H-pyrrolo[3,4-b]pyridin-6-yl]-2-oxoethyl}-3,3-diphenylpiperidin-2-one] | 31
5 | > 10 | O=C(CN1CCCC(c2ccccc2)(c2ccccc2)C1=O)N1C[C@H]2CCCN[C@H]2C1 [Example 4, 1-{2-[(4aR,7aR)-Octahydro-6H-pyrrolo[3,4-b]pyridin-6-yl]-2-oxoethyl}-3,3-diphenylpiperidin-2-one] | 19
6 | 1.6 | O=C(CN1CCCC(c2ccccc2)(c2ccccc2)C1=O)N1CCC[C@H]2CNC[C@H]21 [Example 5, 1-{2-[(4aS,7aS)-Octahydro-1H-pyrrolo[3,4-b]pyridin-1-yl]-2-oxoethyl}-3,3-diphenylpiperidin-2-one] | 
7 | 5.31 | O=C(CN1CCCC(c2ccccc2)(c2ccccc2)C1=O)N1CC2CNCC2C1 (stereo not shown) [Example 6, 1-(2-Hexahydropyrrolo[3,4-c]pyrrol-2(1H)-yl-2-oxoethyl)-3,3-diphenylpiperidin-2-one] | 74
8 | 5.8 | O=C(CN1CCCC(c2ccccc2)(c2ccccc2)C1=O)N1CC2(CCNCC2)C1 [Example 7, 1-[2-(2,7-Diazaspiro[3.5]non-2-yl)-2-oxoethyl]-3,3-diphenylpiperidin-2-one] | 19
9 | > 10 | O=C(CN1CCCC(c2ccccc2)(c2ccccc2)C1=O)NC[C@H]1CCCN1 [Example 8, 2-(2-Oxo-3,3-diphenylpiperidin-1-yl)-N-[(2R)-pyrrolidin-2-ylmethyl]acetamide] | 
10 | 5.86 | O=C(CN1CCCC(c2ccccc2)(c2ccccc2)C1=O)NC[C@@H]1CCCN1 [Example 9, 2-(2-Oxo-3,3-diphenylpiperidin-1-yl)-N-[(2S)-pyrrolidin-2-ylmethyl]acetamide] | 
11 | > 10 | O=C1CN(C(=O)CN2CCCC(c3ccccc3)(c3ccccc3)C2=O)CCN1 [Example 10, 4-[(2-Oxo-3,3-diphenylpiperidin-1-yl)acetyl]piperazin-2-one] | 
12 | 0.56 | O=C(CN1CCCC(c2ccccc2)(c2ccccc2)C1=O)NC1CNC1 [Example 11, N-Azetidin-3-yl-2-(2-oxo-3,3-diphenylpiperidin-1-yl)acetamide] | 
13 | > 10 | O=C(CN1CCCC(c2ccccc2)(c2ccccc2)C1=O)N1CCNCC1 [Example 12, 1-(2-Oxo-2-piperazin-1-ylethyl)-3,3-diphenylpiperidin-2-one] | 41
14 | 7.75 | O=C(CN1CCC(c2ccc(F)cc2)(c2ccc(F)cc2)C1=O)N1CCNCC1 [Example 14, 3,3-Bis(4-fluorophenyl)-1-(2-oxo-2-piperazin-1-ylethyl)pyrrolidin-2-one] | 52
15 | 2.16 | O=C(CN1CCC(c2ccc(F)cc2)(c2ccc(F)cc2)C1=O)N1CCN2CCC[C@@H]2C1 [Example 15, 3,3-Bis(4-fluorophenyl)-1-{2-[(8aR)-hexahydropyrrolo[1,2-a]pyrazin-2(1H)-yl]-2-oxoethyl}pyrrolidin-2-one] | 
16 | 0.82 | O=C(CN1CCC(c2ccc(F)cc2)(c2ccc(F)cc2)C1=O)NC1CNC1 [Example 16, N-Azetidin-3-yl-2-[3,3-bis(4-fluorophenyl)-2-oxopyrrolidin-1-yl]acetamide] | 
17 | 4.07 | O=C(CN1CCC(c2ccc(F)cc2)(c2ccc(F)cc2)C1=O)N(C1CCNCC1)C1CC1 [Example 17, 2-[3,3-Bis(4-fluorophenyl)-2-oxopyrrolidin-1-yl]-N-cyclopropyl-N-piperidin-4-ylacetamide] | 
18 | 9.1 | O=C(CN1CCC(c2ccc(F)cc2)(c2ccc(F)cc2)C1=O)N(C1CCC1)C1CCNCC1 [Example 18, 2-[3,3-Bis(4-fluorophenyl)-2-oxopyrrolidin-1-yl]-N-cyclobutyl-N-piperidin-4-ylacetamide] | 5
19 | 1.1 | O=C(CN1CCC(c2ccc(F)cc2)(c2ccc(F)cc2)C1=O)N(C1CCCC1)C1CCNCC1 [Example 19, 2-[3,3-Bis(4-fluorophenyl)-2-oxopyrrolidin-1-yl]-N-cyclopentyl-N-piperidin-4-ylacetamide] | 
20 | 1 | O=C(CN1CCC(c2ccccc2)(c2ccccc2)C1=O)N1CCN(C2CCCCC2)CC1 [Example 21, 1-[2-(4-Cyclohexylpiperazin-1-yl)-2-oxoethyl]-3,3-diphenylpyrrolidin-2-one] | 
21 | > 10 | CN1CCN(C(=O)CN2CCCC(c3ccccc3)(c3ccccc3)C2=O)CC1 [Example 22, 1-[2-(4-Methylpiperazin-1-yl)-2-oxoethyl]-3,3-diphenylpiperidin-2-one] | 
22 |  | O=C(CN1CCCC(c2ccc(F)cc2)(c2ccc(F)cc2)C1=O)N1CCNCC1 [Example 23, 3,3-Bis(4-fluorophenyl)-1-(2-oxo-2-piperazin-1-ylethyl)piperidin-2-one] | -2
23 |  | O=C(CN1CCC(c2ccccc2)(c2ccccc2)C1=O)N1CCNCC1 [Example 24, 1-(2-Oxo-2-piperazin-1-ylethyl)-3,3-diphenylpyrrolidin-2-one] | 52
